Experimental data from patent US20250213597A1, “AGENT FOR INDUCING PROLIFERATION OR DIFFERENTIATION OF CHONDROCYTE” (TOHOKU UNIVERSITY, priority 2022, published 2025).

Test system: ATDC5 cells
Experiment: Proliferation test of ATDC5 cells
Format: cell-based
Protocol: ATDC5 cells were cultured at a cell density of 5×10^5 cells/35 mm dish. As the culture solution, DMEM-Ham's F12 medium containing 5% FBS and 1% Pen/Strep was used. Adjustment was conducted to final concentrations of MPMBP of 10 μM (M10) and 100 μM (M100), clodronate of 10 μM (C10) and 100 μM (C100), zoledronate of 10 μM (Z10) and 100 μM (Z100) and a control (Vehicle), and the cells were cultured under the conditions of 5% CO2 at 37° C. The medium was changed every three days.

## O=P(O)(O)C(O)(Cn1ccnc1)P(=O)(O)O [zoledronate]
Sixth day of culture, 10 μM
  number of cells: decreased significantly
Sixth day of culture, 100 μM
  number of cells: decreased significantly
Third day of culture, 10 μM
  number of cells: decreased
Third day of culture, 100 μM
  number of cells: decreased

## O=P(O)(O)C(Cl)(Cl)P(=O)(O)O [clodronate]
Third day of culture, 10 μM
  number of cells: increased
Third day of culture, 100 μM
  number of cells: increased
